Assay results reported in patent publication US20140213513A1 (Sanofi, priority 2012, published 2014).
*1 amine or outer side, *2 acyl side, *3 side chain or, on linkers, in order; H or OH if unused. Where a SMILES comes first, the peptide text is derived from it. Side-chain parts run from the residue outwards. [ ]: non-standard residue; d: D form. The star is where a group is joined. γGlu = O=C(O)[C@H](CCC(=O)[*:2])N[*:1]; Palmitoyl = CCCCCCCCCCCCCCCC(=O)*; Aib = CC(C)(N)C(=O)O

Tests used:
Format in all cases: cell-based
Details in all cases: Table 7; cAMP formation
[1] = biological target: T1, human glucagon receptor (hGLUC R) (Homo sapiens, UniProt P47871); experiment: cAMP response of HEK-293 cells stably expressing human glucagon receptor (HTRF)
T1 construct: expressed in transfected cells
T1 sequence (P47871 26-477): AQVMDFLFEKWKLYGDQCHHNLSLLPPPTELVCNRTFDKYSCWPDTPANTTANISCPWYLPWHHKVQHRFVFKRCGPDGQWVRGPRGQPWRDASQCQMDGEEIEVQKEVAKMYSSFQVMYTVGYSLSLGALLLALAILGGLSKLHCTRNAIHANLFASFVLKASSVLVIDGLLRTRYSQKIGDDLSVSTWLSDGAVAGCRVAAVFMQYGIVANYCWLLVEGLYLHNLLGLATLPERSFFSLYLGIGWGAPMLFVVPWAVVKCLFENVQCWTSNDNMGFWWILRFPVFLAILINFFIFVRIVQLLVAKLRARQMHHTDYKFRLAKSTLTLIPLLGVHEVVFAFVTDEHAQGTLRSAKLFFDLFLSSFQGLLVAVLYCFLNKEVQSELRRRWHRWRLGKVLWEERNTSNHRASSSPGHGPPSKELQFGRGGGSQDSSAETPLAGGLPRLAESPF
Experimental: (§1) cAMP content of cells was determined using a kit from Cisbio Corp. (cat. no. 62AM4PEC) based on HTRF (Homogenous Time Resolved Fluorescence). For preparation, cells were split into T175 culture flasks and grown overnight to near confluency in medium (DMEM/10% FBS). Medium was then removed and cells washed with PBS lacking calcium and magnesium, followed by proteinase treatment with accutase (Sigma-Aldrich cat. no. A6964). Detached cells were washed and resuspended in assay buffer (1×HBSS; 20 mM HEPES, 0.1% BSA, 2 mM IBMX) and cellular density determined. They were then diluted to 400000 cells/ml and 25 μl-aliquots dispensed into the wells of 96-well plates. For measurement, 25 μl of test compound in assay buffer was added to the wells, followed by incubation for 30 minutes at room temperature.

[2] = biological target: T2, human GLP-1 receptor (hGLP-1 R) (Homo sapiens, UniProt P43220); experiment: cAMP response of HEK-293 cells stably expressing human GLP-1 receptor (HTRF)
T2 construct: expressed in transfected cells
T2 sequence (P43220 24-463): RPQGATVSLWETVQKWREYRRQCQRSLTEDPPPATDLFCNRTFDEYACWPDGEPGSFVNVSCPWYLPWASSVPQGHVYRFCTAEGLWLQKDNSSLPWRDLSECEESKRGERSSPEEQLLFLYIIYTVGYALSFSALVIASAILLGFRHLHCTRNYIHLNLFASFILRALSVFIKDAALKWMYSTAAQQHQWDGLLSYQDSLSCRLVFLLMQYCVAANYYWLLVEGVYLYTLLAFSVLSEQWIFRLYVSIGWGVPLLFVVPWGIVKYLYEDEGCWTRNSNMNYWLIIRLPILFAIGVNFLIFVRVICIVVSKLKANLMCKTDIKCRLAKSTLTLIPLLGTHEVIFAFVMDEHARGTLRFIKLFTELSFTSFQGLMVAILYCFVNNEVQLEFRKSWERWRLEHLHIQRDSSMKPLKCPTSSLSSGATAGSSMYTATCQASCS
Experimental: as §1

[3] = biological target: T3, human GIP receptor (hGIP R) (Homo sapiens, UniProt P48546); experiment: cAMP response of HEK-293 cells stably expressing human GIP receptor (HTRF)
T3 construct: expressed in transfected cells
T3 sequence (P48546 22-466): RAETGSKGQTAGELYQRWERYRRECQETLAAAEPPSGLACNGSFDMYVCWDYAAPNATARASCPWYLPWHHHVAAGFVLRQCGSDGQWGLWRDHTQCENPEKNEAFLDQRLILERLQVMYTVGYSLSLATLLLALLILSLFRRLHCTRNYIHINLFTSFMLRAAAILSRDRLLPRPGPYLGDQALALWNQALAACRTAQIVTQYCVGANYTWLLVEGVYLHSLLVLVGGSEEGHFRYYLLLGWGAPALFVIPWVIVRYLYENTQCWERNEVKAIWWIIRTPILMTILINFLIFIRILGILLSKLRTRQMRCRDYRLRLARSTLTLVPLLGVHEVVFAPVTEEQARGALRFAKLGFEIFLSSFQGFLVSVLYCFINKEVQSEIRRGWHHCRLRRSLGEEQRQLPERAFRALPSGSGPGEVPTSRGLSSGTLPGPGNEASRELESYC
Experimental: as §1

Structure (SMILES): CCCCCCCCCCCCCCCC(=O)N[C@@H](CCC(=O)NCCCC[C@H](NC(=O)[C@H](CCC(N)=O)NC(=O)[C@@H](NC(=O)[C@H](CO)NC(=O)[C@H](CC(C)C)NC(=O)[C@H](CC(=O)O)NC(=O)[C@H](CO)NC(=O)[C@@H](NC(=O)[C@H](Cc1ccccc1)NC(=O)[C@@H](NC(=O)CNC(=O)[C@H](CCC(N)=O)NC(=O)C(C)(C)NC(=O)[C@@H](N)Cc1ccc(O)cc1)[C@@H](C)O)[C@@H](C)O)[C@@H](C)CC)C(=O)N[C@@H](CC(=O)O)C(=O)N[C@@H](CCCCN)C(=O)N[C@@H](CCCNC(=N)N)C(=O)N[C@@H](C)C(=O)N[C@@H](C)C(=O)N[C@@H](CCC(N)=O)C(=O)N[C@@H](CC(=O)O)C(=O)N[C@@H](Cc1ccccc1)C(=O)N[C@H](C(=O)N[C@@H](CCC(=O)O)C(=O)N[C@@H](Cc1c[nH]c2ccccc12)C(=O)N[C@@H](CC(C)C)C(=O)N[C@@H](CCCCN)C(=O)N[C@@H](CCCCN)C(=O)NCC(=O)NCC(=O)N1CCC[C@H]1C(=O)N[C@@H](CO)C(=O)N[C@@H](CO)C(=O)NCC(=O)N[C@@H](C)C(=O)N1CCC[C@H]1C(=O)N1CCC[C@H]1C(=O)N1CCC[C@H]1C(=O)N[C@@H](CO)C(N)=O)[C@@H](C)CC)C(=O)O [SEQ ID NO: 44, Y-Aib-Q-G-T-F-T-S-D-L-S-I-Q-K(yE-x53)-DKRAAQDFIEWLKKGGPSSGAPPPS-NH2] (H-Y[Aib]QGTFTSDLSIQK([γGlu-Palmitoyl])DKRAAQDFIEWLKKGGPSSGAPPPS-NH2)
- EC50 [1]: 0.0552 nM
- EC50 [2]: 0.0097 nM
- EC50 [3]: 0.0255 nM

Structure (SMILES): CCCCCCCCCCCCCCCC(=O)N[C@@H](CCC(=O)NCCCC[C@H](NC(=O)[C@H](CCC(N)=O)NC(=O)[C@@H](NC(=O)[C@H](CO)NC(=O)[C@H](CC(C)C)NC(=O)[C@H](CC(=O)O)NC(=O)[C@H](CO)NC(=O)[C@@H](NC(=O)[C@H](Cc1ccccc1)NC(=O)[C@@H](NC(=O)CNC(=O)[C@H](CCC(N)=O)NC(=O)C(C)(C)NC(=O)[C@@H](N)Cc1ccc(O)cc1)[C@@H](C)O)[C@@H](C)O)[C@@H](C)CC)C(=O)N[C@@H](CC(=O)O)C(=O)N[C@@H](CCC(=O)O)C(=O)N[C@@H](CCCNC(=N)N)C(=O)N[C@@H](C)C(=O)N[C@@H](C)C(=O)N[C@@H](CCCCN)C(=O)N[C@@H](CC(=O)O)C(=O)N[C@@H](Cc1ccccc1)C(=O)N[C@H](C(=O)N[C@@H](CCC(=O)O)C(=O)N[C@@H](Cc1c[nH]c2ccccc12)C(=O)N[C@@H](CC(C)C)C(=O)N[C@@H](CCCCN)C(=O)N[C@@H](C)C(=O)NCC(=O)NCC(=O)N1CCC[C@H]1C(=O)N[C@@H](CO)C(=O)N[C@@H](CO)C(=O)NCC(=O)N[C@@H](C)C(=O)N1CCC[C@H]1C(=O)N1CCC[C@H]1C(=O)N1CCC[C@H]1C(=O)N[C@@H](CO)C(N)=O)[C@@H](C)CC)C(=O)O [SEQ ID NO: 35, Y-Aib-Q-G-T-F-T-S-D-L-S-I-Q-K(yE-x53)-DERAAKDFIEWLKAGGPSSGAPPPS-NH2] (H-Y[Aib]QGTFTSDLSIQK([γGlu-Palmitoyl])DERAAKDFIEWLKAGGPSSGAPPPS-NH2)
- EC50 [1]: 0.123 nM
- EC50 [2]: 0.0035 nM
- EC50 [3]: 0.0182 nM

Structure (SMILES): CCCCCCCCCCCCCCCC(=O)N[C@@H](CCC(=O)NCCCC[C@H](NC(=O)[C@H](CCC(N)=O)NC(=O)[C@@H](NC(=O)[C@H](CO)NC(=O)[C@H](CC(C)C)NC(=O)[C@H](CC(=O)O)NC(=O)[C@H](CO)NC(=O)[C@@H](NC(=O)[C@H](Cc1ccccc1)NC(=O)[C@@H](NC(=O)CNC(=O)[C@H](CCC(N)=O)NC(=O)C(C)(C)NC(=O)[C@@H](N)Cc1ccc(O)cc1)[C@@H](C)O)[C@@H](C)O)[C@@H](C)CC)C(=O)N[C@@H](CCC(=O)O)C(=O)N[C@@H](CCCCN)C(=O)N[C@@H](CCCNC(=N)N)C(=O)N[C@@H](C)C(=O)N[C@H](C(=O)NC(C)(C)C(=O)N[C@@H](CCC(=O)O)C(=O)N[C@@H](Cc1ccccc1)C(=O)N[C@H](C(=O)N[C@@H](CCC(=O)O)C(=O)N[C@@H](Cc1c[nH]c2ccccc12)C(=O)N[C@@H](CC(C)C)C(=O)N[C@@H](CCCCN)C(=O)N[C@@H](C)C(=O)NCC(=O)NCC(=O)N1CCC[C@H]1C(=O)N[C@@H](CO)C(=O)N[C@@H](CO)C(=O)NCC(=O)N[C@@H](C)C(=O)N1CCC[C@H]1C(=O)N1CCC[C@H]1C(=O)N1CCC[C@H]1C(=O)N[C@@H](CO)C(N)=O)[C@@H](C)CC)C(C)C)C(=O)O [SEQ ID NO: 26, Y-Aib-Q-G-T-F-T-S-D-L-S-I-Q-K(yE-x53)-E-K-R-A-V-Aib-E-F-I-E-W-L-K-A-G-G-P-S-S-G-A-P-P-P-S-NH2] (H-Y[Aib]QGTFTSDLSIQK([γGlu-Palmitoyl])EKRAV[Aib]EFIEWLKAGGPSSGAPPPS-NH2)
- EC50 [1]: 0.3 nM
- EC50 [2]: 0.0176 nM
- EC50 [3]: 0.0053 nM

Structure (SMILES): CCCCCCCCCCCCCCCC(=O)N[C@@H](CCC(=O)NCCCC[C@H](NC(=O)[C@H](CCC(N)=O)NC(=O)[C@H](CCCCN)NC(=O)[C@H](CO)NC(=O)[C@H](CC(C)C)NC(=O)[C@H](CC(=O)O)NC(=O)[C@H](CO)NC(=O)[C@@H](NC(=O)[C@H](Cc1ccccc1)NC(=O)[C@@H](NC(=O)CNC(=O)[C@H](CCC(N)=O)NC(=O)C(C)(C)NC(=O)[C@@H](N)Cc1ccc(O)cc1)[C@@H](C)O)[C@@H](C)O)C(=O)N[C@@H](CC(=O)O)C(=O)N[C@@H](CO)C(=O)N[C@@H](CCCNC(=N)N)C(=O)N[C@@H](C)C(=O)N[C@@H](C)C(=O)N[C@@H](CCC(N)=O)C(=O)N[C@@H](CC(=O)O)C(=O)N[C@@H](Cc1ccccc1)C(=O)N[C@H](C(=O)N[C@@H](CCC(=O)O)C(=O)N[C@@H](Cc1c[nH]c2ccccc12)C(=O)N[C@@H](CC(C)C)C(=O)N[C@@H](CCCCN)C(=O)N[C@@H](C)C(=O)NCC(=O)NCC(=O)N1CCC[C@H]1C(=O)N[C@@H](CO)C(=O)N[C@@H](CO)C(=O)NCC(=O)N[C@@H](C)C(=O)N1CCC[C@H]1C(=O)N1CCC[C@H]1C(=O)N1CCC[C@H]1C(=O)N[C@@H](CO)C(N)=O)[C@@H](C)CC)C(=O)O [SEQ ID NO: 66, Y-Aib-Q-G-T-F-T-S-D-L-S-K-Q-K(yE-x53)-DSRAAQDFIEWLKAGGPSSGAPPPS-NH2] (H-Y[Aib]QGTFTSDLSKQK([γGlu-Palmitoyl])DSRAAQDFIEWLKAGGPSSGAPPPS-NH2)
- EC50 [1]: 0.0052 nM
- EC50 [2]: 0.0036 nM
- EC50 [3]: 0.0826 nM

Structure (SMILES): CCCCCCCCCCCCCCCC(=O)N[C@@H](CCC(=O)NCCCC[C@H](NC(=O)[C@H](CCC(N)=O)NC(=O)[C@@H](NC(=O)[C@H](CO)NC(=O)[C@H](CC(C)C)NC(=O)[C@H](CC(=O)O)NC(=O)[C@H](CO)NC(=O)[C@@H](NC(=O)[C@H](Cc1ccccc1)NC(=O)[C@@H](NC(=O)CNC(=O)[C@H](CCC(N)=O)NC(=O)C(C)(C)NC(=O)[C@@H](N)Cc1ccc(O)cc1)[C@@H](C)O)[C@@H](C)O)[C@@H](C)CC)C(=O)N[C@@H](CCC(=O)O)C(=O)N[C@@H](CCCCN)C(=O)N[C@@H](CCCNC(=N)N)C(=O)N[C@@H](C)C(=O)N[C@@H](C)C(=O)N[C@@H](CC(C)C)C(=O)N[C@@H](CCC(=O)O)C(=O)N[C@@H](Cc1ccccc1)C(=O)N[C@H](C(=O)N[C@@H](CCC(=O)O)C(=O)N[C@@H](Cc1c[nH]c2ccccc12)C(=O)N[C@@H](CC(C)C)C(=O)N[C@@H](CCCCN)C(=O)N[C@@H](CC(N)=O)C(=O)N[C@H](C(=O)NCC(=O)N1CCC[C@H]1C(=O)N[C@@H](CO)C(=O)N[C@@H](CO)C(=O)NCC(=O)N[C@@H](C)C(=O)N1CCC[C@H]1C(=O)N1CCC[C@H]1C(=O)N1CCC[C@H]1C(=O)N[C@@H](CO)C(N)=O)[C@@H](C)O)[C@@H](C)CC)C(=O)O [SEQ ID NO: 33, Y-Aib-Q-G-T-F-T-S-D-L-S-I-Q-K(yE-x53)-EKRAALEFIEWLKNTGPSSGAPPPS-NH2] (H-Y[Aib]QGTFTSDLSIQK([γGlu-Palmitoyl])EKRAALEFIEWLKNTGPSSGAPPPS-NH2)
- EC50 [1]: 0.109 nM
- EC50 [2]: 0.0081 nM
- EC50 [3]: 0.0882 nM
